ChEMBL document CHEMBL1165922, “Vitamin D receptor agonist/histone deacetylase inhibitor molecular hybrids” (Bioorg Med Chem, 2010)
Values belong to the molecule of their own block, whether it stands above or below them. Calls of active or inactive are those of the source. The rule behind the calls is not given here.

Experiments:
Histone deacetylase 3 = Histone deacetylase 3 (Homo sapiens, UniProt O15379); test: Inhibition of HDAC3 after 10 mins by fluorometric assay
[1] = Ratio of compound to calcitriol antiproliferative activity against mouse AT84 cells; type: functional
Vitamin D3 receptor = target: T1, Vitamin D3 receptor (Homo sapiens, UniProt P11473)
T1 sequence (P11473 whole entry): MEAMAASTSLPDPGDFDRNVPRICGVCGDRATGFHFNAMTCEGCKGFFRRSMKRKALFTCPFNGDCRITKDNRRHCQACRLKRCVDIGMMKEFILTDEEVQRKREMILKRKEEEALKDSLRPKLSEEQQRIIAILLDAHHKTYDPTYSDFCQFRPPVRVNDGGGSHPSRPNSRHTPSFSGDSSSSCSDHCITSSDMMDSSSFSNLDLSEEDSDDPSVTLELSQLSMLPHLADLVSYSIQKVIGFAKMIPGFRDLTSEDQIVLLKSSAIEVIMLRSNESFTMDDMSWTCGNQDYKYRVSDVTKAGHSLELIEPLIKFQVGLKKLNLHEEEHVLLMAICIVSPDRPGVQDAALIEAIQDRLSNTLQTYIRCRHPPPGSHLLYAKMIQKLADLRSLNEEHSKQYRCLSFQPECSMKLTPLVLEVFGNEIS
Description: Binding affinity to VDR ligand binding domain by fluorescence polarization competition assay

Mus musculus [2] = test: Toxicity in FVB mouse assessed as calcium level in blood at 1200 pmol/day administered via osmotic pump for 6 to 7 days measured on day 3 by microchemistry (RVb = 2.24 mmol/L); type: organism-based; conditions: in vivo, other
[3] = target: T2, Protein deacetylase HDAC6 (Homo sapiens, UniProt Q9UBN7); test: Inhibition of HDAC6 after 10 mins by fluorometric assay
T2 sequence (Q9UBN7 whole entry): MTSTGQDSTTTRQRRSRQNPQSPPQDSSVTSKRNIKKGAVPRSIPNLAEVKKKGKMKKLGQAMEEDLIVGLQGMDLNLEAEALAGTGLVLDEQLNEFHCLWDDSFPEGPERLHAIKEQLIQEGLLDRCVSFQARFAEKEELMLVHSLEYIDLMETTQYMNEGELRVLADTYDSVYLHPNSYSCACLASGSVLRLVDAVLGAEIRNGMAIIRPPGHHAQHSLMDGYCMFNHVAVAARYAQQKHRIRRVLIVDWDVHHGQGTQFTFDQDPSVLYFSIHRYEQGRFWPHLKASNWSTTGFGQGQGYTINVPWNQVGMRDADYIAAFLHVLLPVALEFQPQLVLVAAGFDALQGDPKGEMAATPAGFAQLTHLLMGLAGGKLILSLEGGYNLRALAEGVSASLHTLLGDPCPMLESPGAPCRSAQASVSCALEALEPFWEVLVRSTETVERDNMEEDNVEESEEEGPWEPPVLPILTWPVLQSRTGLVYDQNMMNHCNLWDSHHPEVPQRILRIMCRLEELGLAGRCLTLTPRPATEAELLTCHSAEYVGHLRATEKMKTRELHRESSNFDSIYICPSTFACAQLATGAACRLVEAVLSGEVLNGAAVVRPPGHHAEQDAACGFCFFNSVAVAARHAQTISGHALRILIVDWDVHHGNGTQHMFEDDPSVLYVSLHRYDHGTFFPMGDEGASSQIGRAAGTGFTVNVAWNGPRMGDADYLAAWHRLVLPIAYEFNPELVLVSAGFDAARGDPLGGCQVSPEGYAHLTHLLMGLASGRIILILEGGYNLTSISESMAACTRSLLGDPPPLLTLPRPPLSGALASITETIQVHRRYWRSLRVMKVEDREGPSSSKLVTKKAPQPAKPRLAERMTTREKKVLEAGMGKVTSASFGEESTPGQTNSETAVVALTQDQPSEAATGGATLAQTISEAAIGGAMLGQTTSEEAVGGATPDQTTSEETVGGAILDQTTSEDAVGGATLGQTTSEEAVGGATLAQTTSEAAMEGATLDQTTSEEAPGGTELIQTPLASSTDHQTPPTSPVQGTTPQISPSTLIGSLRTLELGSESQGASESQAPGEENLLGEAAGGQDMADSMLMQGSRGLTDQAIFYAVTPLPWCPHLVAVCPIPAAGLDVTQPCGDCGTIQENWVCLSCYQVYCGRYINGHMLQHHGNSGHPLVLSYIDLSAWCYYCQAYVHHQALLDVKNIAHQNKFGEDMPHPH

AT84 = test: Antiproliferative activity against mouse AT84 cells at 100 to 500 nM after 48 hrs by EdU incorporation assay; type: functional, cell-based
Histone deacetylase 2 = Histone deacetylase 2 (Homo sapiens, UniProt Q92769); test: Inhibition of HDAC2 after 10 mins by fluorometric assay
Histone deacetylase 2, sequence (Q92769 whole entry): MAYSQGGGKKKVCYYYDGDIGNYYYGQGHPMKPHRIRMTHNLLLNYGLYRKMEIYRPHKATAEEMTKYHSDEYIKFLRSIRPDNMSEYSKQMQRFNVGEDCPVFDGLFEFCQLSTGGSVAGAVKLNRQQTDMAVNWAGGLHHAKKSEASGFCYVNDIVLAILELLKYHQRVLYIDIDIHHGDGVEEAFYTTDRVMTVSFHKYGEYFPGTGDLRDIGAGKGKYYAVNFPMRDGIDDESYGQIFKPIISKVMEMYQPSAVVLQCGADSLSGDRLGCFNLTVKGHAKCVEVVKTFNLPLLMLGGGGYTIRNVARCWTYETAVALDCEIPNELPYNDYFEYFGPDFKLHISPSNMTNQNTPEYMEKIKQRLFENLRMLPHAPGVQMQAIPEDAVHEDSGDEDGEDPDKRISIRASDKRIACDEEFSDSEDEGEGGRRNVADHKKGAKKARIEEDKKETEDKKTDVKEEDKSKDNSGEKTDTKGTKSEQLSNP

Mus musculus [4] = test: Toxicity in FVB mouse assessed as calcium level in blood at 1200 pmol/day administered via osmotic pump for 6 to 7 days measured on day 6 by microchemistry (RVb = 2 mmol/L); type: organism-based; conditions: in vivo, other
Mus musculus [5] = test: Toxicity in FVB mouse assessed as calcium level in blood at 240 pmol/day administered via osmotic pump for 6 to 7 days measured on day 6 by microchemistry (RVb = 2 mmol/L); type: organism-based; conditions: in vivo, other
Mus musculus [6] = test: Toxicity in FVB mouse assessed as calcium level in blood at 240 pmol/day administered via osmotic pump for 6 to 7 days measured on day 3 by microchemistry (RVb = 2.24 mmol/L); type: organism-based; conditions: in vivo, other
Mus musculus [7] = test: Toxicity in FVB mouse assessed as calcium level in blood at 240 pmol/day administered via osmotic pump for 6 to 7 days measured on day 7 by microchemistry (RVb = […] mmol/L); type: organism-based; conditions: in vivo, other
Mus musculus [8] = test: Toxicity in FVB mouse assessed as calcium level in blood at 240 pmol/day administered via osmotic pump for 6 to 7 days measured on day 4 by microchemistry (RVb = 2.11 mmol/L); type: organism-based; conditions: in vivo, other
Mus musculus [9] = test: Toxicity in FVB mouse assessed as calcium level in blood at 1200 pmol/day administered via osmotic pump for 6 to 7 days measured on day 7 by microchemistry (RVb = […] mmol/L); type: organism-based; conditions: in vivo, other
Mus musculus [10] = test: Toxicity in FVB mouse assessed as calcium level in blood at 1200 pmol/day administered via osmotic pump for 6 to 7 days measured on day 4 by microchemistry (RVb = 2.11 mmol/L); type: organism-based; conditions: in vivo, other
Mus musculus [11] = test: Toxicity in FVB mouse assessed as calcium level in blood at 12 pmol/day administered via osmotic pump for 6 to 7 days measured on day 7 by microchemistry (RVb = […] mmol/L); type: organism-based; conditions: in vivo, other
Mus musculus [12] = test: Toxicity in FVB mouse assessed as calcium level in blood at 12 pmol/day administered via osmotic pump for 6 to 7 days measured on day 4 by microchemistry (RVb = 2.11 mmol/L); type: organism-based; conditions: in vivo, other
Mus musculus [13] = test: Toxicity in FVB mouse assessed as calcium level in blood at 12 pmol/day administered via osmotic pump for 6 to 7 days measured on day 6 by microchemistry (RVb = 2 mmol/L); type: organism-based; conditions: in vivo, other
Mus musculus [14] = test: Toxicity in FVB mouse assessed as calcium level in blood at 48 pmol/day administered via osmotic pump for 6 to 7 days measured on day 3 by microchemistry (RVb = 2.24 mmol/L); type: organism-based; conditions: in vivo, other
Mus musculus [15] = test: Toxicity in FVB mouse assessed as calcium level in blood at 48 pmol/day administered via osmotic pump for 6 to 7 days measured on day 6 by microchemistry (RVb = 2 mmol/L); type: organism-based; conditions: in vivo, other
Mus musculus [16] = test: Toxicity in FVB mouse assessed as calcium level in blood at 12 pmol/day administered via osmotic pump for 6 to 7 days measured on day 3 by microchemistry (RVb = 2.24 mmol/L); type: organism-based; conditions: in vivo, other
Mus musculus [17] = test: Toxicity in FVB mouse assessed as calcium level in blood at 24 pmol/day administered via osmotic pump for 6 to 7 days measured on day 7 by microchemistry (RVb = […] mmol/L); type: organism-based; conditions: in vivo, other
Mus musculus [18] = test: Toxicity in FVB mouse assessed as calcium level in blood at 24 pmol/day administered via osmotic pump for 6 to 7 days measured on day 4 by microchemistry (RVb = 2.11 mmol/L); type: organism-based; conditions: in vivo, other
Mus musculus [19] = test: Toxicity in FVB mouse assessed as calcium level in blood at 24 pmol/day administered via osmotic pump for 6 to 7 days measured on day 6 by microchemistry (RVb = 2 mmol/L); type: organism-based; conditions: in vivo, other
Mus musculus [20] = test: Toxicity in FVB mouse assessed as calcium level in blood at 24 pmol/day administered via osmotic pump for 6 to 7 days measured on day 3 by microchemistry (RVb = 2.24 mmol/L); type: organism-based; conditions: in vivo, other

Histone deacetylase 3, sequence (O15379 whole entry): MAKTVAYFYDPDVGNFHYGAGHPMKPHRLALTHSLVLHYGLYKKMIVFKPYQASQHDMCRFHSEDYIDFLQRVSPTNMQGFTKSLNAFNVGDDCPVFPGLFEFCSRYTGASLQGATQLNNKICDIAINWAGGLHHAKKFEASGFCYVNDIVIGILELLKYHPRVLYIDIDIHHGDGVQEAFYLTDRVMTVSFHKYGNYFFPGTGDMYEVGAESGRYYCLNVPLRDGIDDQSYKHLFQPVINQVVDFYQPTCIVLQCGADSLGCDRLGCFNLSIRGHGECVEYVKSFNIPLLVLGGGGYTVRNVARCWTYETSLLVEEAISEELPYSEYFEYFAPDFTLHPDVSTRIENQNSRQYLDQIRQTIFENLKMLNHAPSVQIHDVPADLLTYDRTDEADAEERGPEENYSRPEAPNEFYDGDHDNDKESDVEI

IC50 (Histone deacetylase 3): 14.5 µM
IC50 (Vitamin D3 receptor): 0.248 µM
IC50 [3]: 3 µM
IC50 (Histone deacetylase 2): 16.5 µM
Structure (SMILES): C[C@H](CCCCC(=O)NO)[C@H]1CC[C@H]2/C(=C/C=C3C[C@@H](O)C[C@H](O)C3)CCC[C@]12C
Ratio [1]: 20
Activity (Mus musculus [2]): 2.03 mmol/L
Activity (AT84): Active
Activity (Mus musculus [4]): 2.26 mmol/L
Activity (Mus musculus [5]): 1.93 mmol/L
Activity (Mus musculus [6]): 1.93 mmol/L

IC50 (Histone deacetylase 3): 32.3 µM
IC50 (Vitamin D3 receptor): 0.036 µM
IC50 [3]: 1.75 µM
IC50 (Histone deacetylase 2): 96.3 µM
Structure (SMILES): C[C@H](CCCCNC(=O)CS)[C@H]1CC[C@H]2/C(=C/C=C3C[C@@H](O)C[C@H](O)C3)CCC[C@]12C
Activity (Mus musculus [7]): 2.02 mmol/L
Activity (Mus musculus [8]): 2.03 mmol/L
Activity (AT84): Active
Activity (Mus musculus [9]): 2.04 mmol/L
Activity (Mus musculus [10]): 2 mmol/L

IC50 (Histone deacetylase 3): 470 µM
IC50 (Vitamin D3 receptor): 0.28 µM
IC50 [3]: 50.4 µM
Structure (SMILES): C[C@H](CCCCNS(N)(=O)=O)[C@H]1CC[C@H]2/C(=C/C=C3C[C@@H](O)C[C@H](O)C3)CCC[C@]12C

IC50 (Histone deacetylase 3): 730 µM
IC50 (Vitamin D3 receptor): 0.213 µM
IC50 [3]: 71.3 µM
Structure (SMILES): C[C@H](CCCNS(C)(=O)=O)[C@H]1CC[C@H]2/C(=C/C=C3C[C@@H](O)C[C@H](O)C3)CCC[C@]12C

IC50 (Histone deacetylase 3): 3.2 µM
IC50 [3]: 9.3 µM
Structure (SMILES): C[C@H](CCCC(=O)NO)[C@H]1CC[C@H]2/C(=C/C=C3C[C@@H](O)C[C@H](O)C3)CCC[C@]12C

IC50 (Histone deacetylase 3): 605 µM
IC50 (Vitamin D3 receptor): 0.196 µM
IC50 [3]: 31.6 µM
Structure (SMILES): C[C@H](CCCCCNS(N)(=O)=O)[C@H]1CC[C@H]2/C(=C/C=C3C[C@@H](O)C[C@H](O)C3)CCC[C@]12C

IC50 (Histone deacetylase 3): 13.3 µM
IC50 (Vitamin D3 receptor): 0.087 µM
IC50 [3]: 0.58 µM
IC50 (Histone deacetylase 2): 10.4 µM
Structure (SMILES): CC(/C=C/C(=O)NO)=C\[C@@H](C)[C@H]1CC[C@H]2/C(=C/C=C3\C[C@@H](O)C[C@@H](O)C3)CCC[C@]12C [TRICIFEROL]
Activity (Mus musculus [2]): 1.92 mmol/L
Activity (Mus musculus [4]): 2.08 mmol/L
Activity (Mus musculus [5]): 2.03 mmol/L
Activity (Mus musculus [6]): 2.11 mmol/L

Structure (SMILES): C=C1/C(=C\C=C2/CCC[C@]3(C)[C@@H]([C@H](C)CCCC(C)(C)O)CC[C@@H]23)C[C@@H](O)C[C@@H]1O [CALCITRIOL]
Activity (Mus musculus [11]): 2.62 mmol/L
Activity (Mus musculus [12]): 2.59 mmol/L
Activity (Mus musculus [13]): 2.03 mmol/L
Activity (Mus musculus [14]): 3.07 mmol/L
Activity (Mus musculus [15]): Toxic
Activity (Mus musculus [16]): 2.05 mmol/L
Activity (Mus musculus [17]): 3.21 mmol/L
Activity (Mus musculus [18]): 2.97 mmol/L
Activity (Mus musculus [19]): 4.43 mmol/L
Activity (Mus musculus [20]): 3.15 mmol/L
